IC50 data for 19 compounds are collected here from BindingDB's records for doi:10.1016/j.chembiol.2007.10.017 (University of California Irvine, 2007).

The target in the test is T1, Monoglyceride lipase (Rattus norvegicus, UniProt Q8R431).
T1 sequence (Q8R431 whole entry): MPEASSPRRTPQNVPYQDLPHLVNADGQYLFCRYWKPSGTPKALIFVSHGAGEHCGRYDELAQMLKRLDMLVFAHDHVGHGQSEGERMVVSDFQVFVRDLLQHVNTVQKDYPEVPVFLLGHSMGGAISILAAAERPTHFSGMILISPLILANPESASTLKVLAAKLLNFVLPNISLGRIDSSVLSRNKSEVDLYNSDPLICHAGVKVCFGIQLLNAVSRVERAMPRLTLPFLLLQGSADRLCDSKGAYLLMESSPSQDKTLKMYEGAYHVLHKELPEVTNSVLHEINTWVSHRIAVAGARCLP
The test can be described thus: Inhibition Assay. Particulars: pH 8. The source says: The measurement of the ability of URB602 compound to inhibit MGL activity.
By IC50 is commonly meant the point on the concentration scale where inhibition reaches its midpoint. Turning to `O=C(NCCCCCc1ccccc1)OC1CCCCC1` [URB602, 3a], the IC50 is above 300 µM.

Consider `O=C(Nc1ccccc1)OC1CCCCC1` [URB602, 3b], for which the IC50 was above 300 µM.

For `O=C(Nc1cccc(-c2ccccc2)c1)OCCCCCc1ccccc1` [URB602, 3c], the IC50 was above 300 µM.

Take `Cc1cccc(-c2cccc(NC(=O)OC3CCCCC3)c2)c1` [URB602, 3d]: the IC50 is above 300 µM.

As to `O=C(Nc1cccc(-c2cccc(C(F)(F)F)c2)c1)OC1CCCCC1` [URB602, 3e], the half-inhibitory concentration (IC50) was above 300 µM.

Compound `O=C(Nc1cccc(Oc2cccc(-c3ccccc3)c2)c1)OC1CCCCC1` [URB602, 3f] returned an IC50 above 300 µM.

On to `O=C(Nc1ccccc1-c1ccccc1)OC1CCCCC1` [URB602, 3g], for which the IC50 was above 300 µM.

Turning to `O=C(Nc1cccc(-c2ccccc2)c1)OCC(O)CO` (centres undefined) [URB602, 3h], the 50% inhibitory concentration (IC50) was above 300 µM.

With `CC1(C)OCC(OC(=O)Nc2cccc(-c3ccccc3)c2)CO1` [URB602, 3i], the IC50 is above 300 µM.

`O=C(Nc1cccc(-c2ccccc2)c1)Oc1cccc(-c2ccccc2)c1` [URB602, 3j] registered a concentration for half-maximal inhibition (IC50) above 300 µM.

`O=C(Nc1ccc(-c2ccccc2)cc1)OC1CCCCC1` [URB602, 3k] gave an IC50 above 300 µM.

In turn, `O=C(Nc1cccc(-c2ccccc2)c1)Oc1ccccc1` [URB602, 3l] gave a half-maximal inhibitory concentration (IC50) of 243 µM.

`Cc1cccc(-c2cccc(NC(=O)OC(CO)CO)c2)c1` [URB602, 3m] showed an IC50 above 300 µM.

On to `O=C(Nc1cccc(-c2ccccc2)c1)OC(CO)CO` [URB602, 3n], for which the IC50 is above 300 µM.

With `CN(C(=O)OC1CCCCC1)c1cccc(-c2ccccc2)c1` [URB602, 3o], the IC50 was above 300 µM.

In the case of `O=C(Nc1cccc(-c2ccccc2)c1)NC1CCCCC1` [URB602, 4a], half-maximal inhibition (IC50) was put at 115 µM.

With `O=C(CC1CCCCC1)Nc1cccc(-c2ccccc2)c1` [URB602, 5], the IC50 was above 300 µM.

In the case of `O=C(Nc1cccc(-c2ccccc2)c1)SC1CCCCC1` [URB602, 6], the half-inhibitory concentration (IC50) was above 300 µM.

Compound `O=C(Nc1cccc(-c2ccccc2)c1)OC1CCCCC1` [cyclohexyl biphenyl-3-ylcarbamate] yielded a concentration for half-maximal inhibition (IC50) of 223 µM.
